# Test results taken from ChEMBL document CHEMBL5113530, “Butyrylation Meets Adipogenesis-Probed by a p300-Catalyzed Acylation-Specific Small Molecule Inhibitor: Implication in Anti-obesity Therapy” (J Med Chem, 2022).
# Calls of active or inactive are those of the source. The calls are words filed in the database; no cut-off is given here.
# Tests used:
# [1] = system: Mus musculus; test: Anti-obesity activity in C57BL6/J mouse model of high fat diet-induced obesity assessed as reduction in epididymal fat pad weight at 50 mg/kg; assay type: functional, organism-based
# [2] = system: Histone acetyltransferase p300 (Homo sapiens), Q09472 [C1438A]; test: Inhibition of His-tagged EP300 C1438A mutant catalytic domain catalyzed butyrylation (unknown origin) expressed in Escherichia coli BL21 (DE3) using Histone H3 as substrate at 25 uM preincubated with compound for 10 mins followed by butyryl-CoA addition and measured after 10 mins by Western blot analysis; details: time 20.0 min
# [3] = Stability of compound in mouse 3T3-L1 cells measured after 6 days by LC-ESI-MS analysis; assay type: ADME, cell-based; details: 3t3-l1, 144 h, time 6 day
# [4] = system: 3T3-L1; test: Cytotoxicity against in mouse 3T3-L1 cells assessed as effect on cellular oxidoreductase activity at 25 uM incubated for 6 days by MTT assay; assay type: toxicity, cell-based; details: 3t3-l1, 144 h, time 6 day
# [5] = system: 3T3-L1; test: Anti-adipogenic activity against mouse 3T3-L1 cells assessed as downregulation of PPARG mRNA expression at 25 uM measured after 7 days by qRT-PCR analysis; assay type: functional, cell-based; details: time 7.0 day
# [6] = system: 3T3-L1; test: Anti-adipogenic activity against mouse 3T3-L1 cells assessed as downregulation of FABP4 mRNA expression at 25 uM measured after 7 days by qRT-PCR analysis; assay type: functional, cell-based; details: time 7.0 day
# [7] = system: 3T3-L1; test: Anti-adipogenic activity against mouse 3T3-L1 cells assessed as upregulation of TEAD4 mRNA expression at 25 uM measured after 7 days by qRT-PCR analysis; assay type: functional, cell-based; details: time 7.0 day
# [8] = system: 3T3-L1; test: Inhibition of H3K23 butyrylation in mouse 3T3-L1 cells by Immunoblotting analysis; assay type: functional, cell-based
# [9] = system: Mus musculus; test: Anti-obesity activity in C57BL6/J mouse model of high fat diet-induced obesity assessed as daily food consumption measured per day per mouse at 50 mg/kg (reference value: 1.95547 +/- 0.23142 g); assay type: functional
# [10] = system: Mus musculus; test: Anti-obesity activity in C57BL6/J mouse model of high fat diet-induced obesity assessed as reduction in adipocyte hypertrophy at 50 mg/kg by hematoxylin and eosin staining based assay; assay type: functional, organism-based
# [11] = system: Mus musculus; test: Anti-obesity activity in C57BL6/J mouse model of high fat diet-induced obesity assessed as reduction in H4K5 butyrylation level in epididymal fat pad at 50 mg/kg by Immunoblotting analysis; assay type: functional, organism-based
# [12] = system: Mus musculus; test: Anti-obesity activity in db/db mouse assessed as daily food consumption […] at 50 mg/kg, po qd administered for 30 days and measured every week (reference value: 37.8 +/- 1.64 g); assay type: functional; details: time 30 day
# [13] = system: Mus musculus; test: Anti-obesity activity in db/db mouse assessed as reduction in H4K5 butyrylation level in liver at 50 mg/kg, po qd administered for 30 days by DAPI staining based immunofluorescence microscopic analysis; assay type: functional, organism-based; details: time 30.0 day
# [14] = system: Mus musculus; test: Anti-obesity activity in db/db mouse assessed as reduction in H4K5 butyrylation level in epididymal fat pad at 50 mg/kg, po qd administered for 30 days by Immunoblotting analysis; assay type: functional, organism-based; details: time 30.0 day
# [15] = system: Mus musculus; test: Anti-obesity activity in db/db mouse assessed as inhibition of Adipoq-gene expression at 50 mg/kg, po qd administered for 30 days by qRT-PCR analysis; assay type: functional, organism-based; details: time 30.0 day
# [16] = Mutagenicity in Salmonella typhimurium TA98 assessed as number of revertants measured per plate at 10 to 1000 incubated for 48 hrs in presence of rat liver S9 fraction by plate incorporation assay; assay type: toxicity; details: salmonella enterica subsp. enterica serovar typhimurium, s9, 48 h, dose 10-1000 µg
# [17] = Mutagenicity in Salmonella typhimurium TA102 assessed as number of revertants measured per plate at 10 to 1000 incubated for 48 hrs in presence of rat liver S9 fraction by plate incorporation assay; assay type: toxicity; details: salmonella enterica subsp. enterica serovar typhimurium, s9, 48 h, dose 10-1000 µg
# [18] = Mutagenicity in Salmonella typhimurium TA97a assessed as number of revertants measured per plate at 10 to 1000 incubated for 48 hrs in absence of rat liver S9 fraction by plate incorporation assay; assay type: toxicity; details: salmonella enterica subsp. enterica serovar typhimurium, s9, 48 h, dose 10-1000 µg
# [19] = Toxicity in male Sprague-Dawley rat assessed as effect on body weight at 250 mg/kg, po administered as single dose measured on day 1 (reference value: 174.75 +/- 7.61 g); assay type: organism-based; details: in vivo, 24 h, time 1 day
# [20] = Toxicity in male Sprague-Dawley rat assessed as effect on body weight at 500 mg/kg, po administered as single dose measured on day 1 (reference value: 174.75 +/- 7.61 g); assay type: organism-based; details: in vivo, 24 h, time 1 day
# [21] = Toxicity in male Sprague-Dawley rat assessed as effect on body weight at 1000 mg/kg, po administered as single dose measured on day 14 (Rvb =231.13 +/- 18.38 g); assay type: organism-based; details: in vivo, 336 h, time 14 day
# [22] = Toxicity in female Sprague-Dawley rat assessed as effect on body weight at 500 mg/kg, po administered as single dose measured on day 7 (Rvb =169.81 +/- 6.57 g); assay type: organism-based; details: in vivo, 168 h, time 7 day
# [23] = Toxicity in female Sprague-Dawley rat assessed as effect on body weight at 1000 mg/kg, po administered as single dose measured on day 14 (Rvb =171.5 +/- 6.65 g); assay type: organism-based; details: in vivo, 336 h, time 14 day
# [24] = Toxicity in male Sprague-Dawley rat assessed as average food intake at 500 mg/kg, po administered as single dose measured on day 7 (Rvb =20.24 g/day); assay type: organism-based; details: in vivo, 168 h, time 7 day
# [25] = Toxicity in female Sprague-Dawley rat assessed as average food intake at 1000 mg/kg, po administered as single dose measured on day 1 (Rvb =17.84 g/day); assay type: organism-based; details: in vivo, 24 h, time 1 day
# [26] = Toxicity in female Sprague-Dawley rat assessed as average food intake at 500 mg/kg, po administered as single dose measured on day 7 (Rvb =15.65 g/day); assay type: organism-based; details: in vivo, 168 h, time 7 day
# [27] = Toxicity in male Sprague-Dawley rat assessed as average water intake measured per day at 500 mg/kg, po administered as single dose measured on day 1 (Rvb =32 ml/day); assay type: organism-based; details: in vivo, 24 h, time 1 day
# [28] = Toxicity in male Sprague-Dawley rat assessed as average water intake measured per day at 1000 mg/kg, po administered as single dose measured on day 1 (Rvb =32 ml/day); assay type: organism-based; details: in vivo, 24 h, time 1 day
# [29] = Toxicity in male Sprague-Dawley rat assessed as average water intake measured per day at 1000 mg/kg, po administered as single dose measured on day 7 (Rvb =30 ml/day); assay type: organism-based; details: in vivo, 168 h, time 7 day
# [30] = Toxicity in male Sprague-Dawley rat assessed as average water intake measured per day at 250 mg/kg, po administered as single dose measured on day 14 (Rvb =34 ml/day); assay type: organism-based; details: in vivo, 336 h, time 14 day
# [31] = Toxicity in male Sprague-Dawley rat assessed as average water intake measured per day at 500 mg/kg, po administered as single dose measured on day 14 (Rvb =34 ml/day); assay type: organism-based; details: in vivo, 336 h, time 14 day
# [32] = Toxicity in male Sprague-Dawley rat assessed as average water intake measured per day at 1000 mg/kg, po administered as single dose measured on day 14 (Rvb =34 ml/day); assay type: organism-based; details: in vivo, 336 h, time 14 day
# [33] = Toxicity in female Sprague-Dawley rat assessed as average water intake measured per day at 250 mg/kg, po administered as single dose measured on day 7 (Rvb =21 ml/day); assay type: organism-based; details: in vivo, 168 h, time 7 day
# [34] = Toxicity in female Sprague-Dawley rat assessed as average water intake measured per day at 500 mg/kg, po administered as single dose measured on day 7 (Rvb =21 ml/day); assay type: organism-based; details: in vivo, 168 h, time 7 day
# Sequence of Histone acetyltransferase p300 (Homo sapiens), Q09472 [C1438A] (Q09472 whole entry C1438A, the tested form may be a part): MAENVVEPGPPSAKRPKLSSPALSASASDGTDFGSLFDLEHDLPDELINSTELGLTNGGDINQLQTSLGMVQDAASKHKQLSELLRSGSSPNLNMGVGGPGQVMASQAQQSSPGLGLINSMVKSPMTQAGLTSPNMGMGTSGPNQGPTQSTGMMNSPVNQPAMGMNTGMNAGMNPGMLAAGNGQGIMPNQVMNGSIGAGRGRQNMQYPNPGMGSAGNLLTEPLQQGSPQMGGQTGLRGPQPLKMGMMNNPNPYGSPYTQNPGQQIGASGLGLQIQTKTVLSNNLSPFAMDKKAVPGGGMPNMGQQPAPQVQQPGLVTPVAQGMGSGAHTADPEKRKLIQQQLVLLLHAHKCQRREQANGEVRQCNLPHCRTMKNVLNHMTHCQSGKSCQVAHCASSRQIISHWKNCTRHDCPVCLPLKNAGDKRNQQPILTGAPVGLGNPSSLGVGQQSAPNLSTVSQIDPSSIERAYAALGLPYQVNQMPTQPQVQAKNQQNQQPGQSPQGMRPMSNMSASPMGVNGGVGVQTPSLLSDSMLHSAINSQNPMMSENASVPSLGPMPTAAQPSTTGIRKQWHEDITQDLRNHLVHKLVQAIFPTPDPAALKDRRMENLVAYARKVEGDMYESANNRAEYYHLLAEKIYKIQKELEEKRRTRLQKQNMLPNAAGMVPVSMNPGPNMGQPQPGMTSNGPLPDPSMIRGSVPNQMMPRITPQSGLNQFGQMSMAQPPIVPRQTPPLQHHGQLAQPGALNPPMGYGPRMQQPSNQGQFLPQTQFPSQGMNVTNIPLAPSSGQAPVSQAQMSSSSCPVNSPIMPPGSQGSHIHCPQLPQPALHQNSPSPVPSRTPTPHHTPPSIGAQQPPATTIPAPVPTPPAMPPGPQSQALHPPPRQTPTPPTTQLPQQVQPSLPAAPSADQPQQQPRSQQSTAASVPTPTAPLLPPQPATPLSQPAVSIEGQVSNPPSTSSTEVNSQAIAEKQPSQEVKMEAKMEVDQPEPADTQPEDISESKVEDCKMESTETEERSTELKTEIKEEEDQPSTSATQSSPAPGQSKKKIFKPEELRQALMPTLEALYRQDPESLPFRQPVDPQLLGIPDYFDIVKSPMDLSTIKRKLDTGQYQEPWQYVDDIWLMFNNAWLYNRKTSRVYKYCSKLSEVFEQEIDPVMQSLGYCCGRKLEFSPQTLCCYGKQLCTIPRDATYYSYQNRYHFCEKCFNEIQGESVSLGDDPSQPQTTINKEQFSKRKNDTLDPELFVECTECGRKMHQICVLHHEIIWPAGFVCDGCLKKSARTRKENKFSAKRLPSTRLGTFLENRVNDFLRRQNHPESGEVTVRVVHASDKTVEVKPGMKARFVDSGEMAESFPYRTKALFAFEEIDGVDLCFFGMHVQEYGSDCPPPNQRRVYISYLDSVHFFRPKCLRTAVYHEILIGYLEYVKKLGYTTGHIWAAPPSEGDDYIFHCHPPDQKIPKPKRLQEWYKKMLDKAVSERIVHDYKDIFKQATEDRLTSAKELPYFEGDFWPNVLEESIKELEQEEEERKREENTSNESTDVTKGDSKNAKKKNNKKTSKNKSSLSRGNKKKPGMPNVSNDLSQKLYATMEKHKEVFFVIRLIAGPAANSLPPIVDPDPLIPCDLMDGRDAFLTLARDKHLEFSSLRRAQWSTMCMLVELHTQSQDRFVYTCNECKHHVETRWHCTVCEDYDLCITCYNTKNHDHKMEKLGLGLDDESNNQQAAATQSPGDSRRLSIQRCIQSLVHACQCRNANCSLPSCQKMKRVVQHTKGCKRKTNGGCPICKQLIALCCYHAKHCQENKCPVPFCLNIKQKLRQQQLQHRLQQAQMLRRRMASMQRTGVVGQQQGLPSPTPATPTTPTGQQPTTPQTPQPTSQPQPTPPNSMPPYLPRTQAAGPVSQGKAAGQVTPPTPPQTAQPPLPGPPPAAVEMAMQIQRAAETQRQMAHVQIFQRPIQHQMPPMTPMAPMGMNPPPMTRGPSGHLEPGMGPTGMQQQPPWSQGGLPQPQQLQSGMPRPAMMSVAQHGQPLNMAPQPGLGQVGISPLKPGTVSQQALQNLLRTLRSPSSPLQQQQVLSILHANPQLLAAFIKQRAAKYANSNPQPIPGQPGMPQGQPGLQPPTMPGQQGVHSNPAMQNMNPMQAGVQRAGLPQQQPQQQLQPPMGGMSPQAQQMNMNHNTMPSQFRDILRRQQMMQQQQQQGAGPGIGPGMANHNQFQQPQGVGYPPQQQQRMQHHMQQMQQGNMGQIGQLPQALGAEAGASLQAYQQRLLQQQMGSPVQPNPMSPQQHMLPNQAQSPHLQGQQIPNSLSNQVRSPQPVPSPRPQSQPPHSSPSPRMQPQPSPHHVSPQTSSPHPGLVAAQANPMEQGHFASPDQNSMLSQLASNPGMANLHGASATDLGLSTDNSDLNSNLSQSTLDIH
compound,measurement,setting,value
COc1ccc(C(=O)C2=C3OC(C)(C)[C@@H](CC=C(C)C)C[C@@]34C[C@@H](CC=C(C)C)C(C)(C)[C@](CC=C(C)C)(C2=O)C4=O)cc1OC,Activity,[1],Active
same,inhibition,[2],Active
same,Stability,[3],Stable
same,Activity,[4],Non-Toxic
same,Activity,[5],Active
same,Activity,[6],Active
same,Activity,[7],Active
same,inhibition,[8],Active
same,Activity,[9],2.041 g
same,Activity,[10],Active
same,Activity,[11],Active
same,Activity,[12],34 g
same,Activity,[13],Active
same,Activity,[14],Active
same,Activity,[15],Active
same,Activity,[16],Non-Toxic
same,Activity,[17],Non-Toxic
same,Activity,[18],Non-Toxic
same,Activity,[19],171.94 g
same,Activity,[20],176.3 g
same,Activity,[21],226.19 g
same,Activity,[22],176.55 g
same,Activity,[23],179.52 g
same,Activity,[24],21.14 g/day
same,Activity,[25],18.17 g/day
same,Activity,[26],18.13 g/day
same,Activity,[27],36 mL
same,Activity,[28],34 mL
same,Activity,[29],31 mL
same,Activity,[30],34 mL
same,Activity,[31],40 mL
same,Activity,[32],38 mL
same,Activity,[33],21 mL
same,Activity,[34],23 mL
